In patent publication US9890185B2, “Urea derivatives useful as kinase inhibitors” (Respivert Limited, priority 2013, dated 2018):
pIC50: −log10 of the molar value.

What was measured:
[1] = molecular target: p38 MAPKα isoform (MAPK14) (Homo sapiens (Human), UniProt Q16539); test: p38 MAPKα enzyme inhibition (FRET, Z-LYTE, Method 2); type: biochemical
In short: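 Z-LYTE FRET: p38 MAPKα (80 ng/mL for Method 1, 200 ng/mL for Method 2, pre-dilution) preincubated 2 hr RT with compound (4–0.004 μg/mL solutions), activity read via MAPKAP-K2 phosphorylation after 1 hr RT and 1 hr protease development. Coumarin/fluorescein ratio gives phosphorylation; % inhibition versus uninhibited control, IC50 from concentration-response curve.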

PBMCs [2] = test: Cell mitosis assay in PBMCs (assay g); type: cell-based; details: Homo sapiens, PBMC, test compound 5 μg/mL
In short: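 Human PBMCs from healthy donors, stimulated with 2% PHA for 48 hr, then exposed to test compounds for 20 hr, with demecolcine (0.1 μg/mL) added 2 hr before harvest. Cells fixed/permeabilised, stained for phospho-histone 3 and propidium iodide, and read by flow cytometry gated on lymphocytes. % mitosis inhibition vs 0.5% DMSO vehicle.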

Syk = Syk (Homo sapiens (Human), UniProt P43405); test: Syk enzyme inhibition (FRET, Z-LYTE); type: biochemical
In short: (§1)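 Fluorescence-ratio kinase assay: 2 hr compound–enzyme preincubation at RT, 1 hr reaction with ATP added as 800 μM (c-Src) or 60 μM (Syk) solution. IC50 derived from percent inhibition curves.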

PBMCs [3] = test: LPS-induced IL-8 release in PBMC cells (assay b); type: cell-based, human; details: Homo sapiens, PBMC; LPS-stimulated PBMCs; read-out: IC50 Values for Inhibition of Cytokine Release, PBMCs IL-8
In short: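 Human PBMCs from healthy donors, isolated by density gradient, were pretreated with compound for 2 h and then stimulated with 1 ng/mL LPS (E. coli 0111:B4) for 24 h at 37° C, 5% CO2. Supernatant IL-8 and TNFα were measured by sandwich ELISA, and IC50 was taken from the dose-response curve.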

c-Src = c-Src (Homo sapiens (Human), UniProt P12931); test: c-Src enzyme inhibition (FRET, Z-LYTE); type: biochemical
Sequence of c-Src (P12931 whole entry, looked up): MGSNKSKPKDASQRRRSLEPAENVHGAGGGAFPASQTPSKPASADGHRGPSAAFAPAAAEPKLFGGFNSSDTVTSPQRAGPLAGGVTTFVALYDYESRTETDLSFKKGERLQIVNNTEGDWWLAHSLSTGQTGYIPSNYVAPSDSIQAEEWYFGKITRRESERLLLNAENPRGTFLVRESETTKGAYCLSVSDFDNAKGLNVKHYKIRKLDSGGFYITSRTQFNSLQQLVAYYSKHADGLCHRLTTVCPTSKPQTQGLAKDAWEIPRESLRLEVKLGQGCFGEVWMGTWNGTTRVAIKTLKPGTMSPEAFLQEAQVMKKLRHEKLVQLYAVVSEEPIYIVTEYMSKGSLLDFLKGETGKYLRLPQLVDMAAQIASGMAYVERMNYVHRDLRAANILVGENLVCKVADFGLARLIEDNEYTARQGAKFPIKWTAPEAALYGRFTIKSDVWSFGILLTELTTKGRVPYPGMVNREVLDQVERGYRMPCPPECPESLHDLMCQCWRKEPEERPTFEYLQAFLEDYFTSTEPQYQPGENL
In short: as §1

PBMCs [4] = test: IFN gamma release in CD3/CD28 stimulated PBMC cells (assay c); type: cell-based; details: Homo sapiens, read-out: IC50 Values for Inhibition of Cytokine Release, PBMCs IFNγ
In short: (§2)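 Healthy-donor PBMCs (density-gradient isolated) stimulated on plates pre-coated with anti-CD3 (0.3 μg/mL) and anti-CD28 (3 μg/mL), with compound, for 3 days under normal culture conditions. IL-2 and IFN gamma in supernatants measured by sandwich ELISA; IC50 from dose-response curve.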

PBMCs [5] = test: IL-2 release in CD3/CD28 stimulated PBMC cells (assay c); type: cell-based; details: Homo sapiens, read-out: IC50 Values for Inhibition of Cytokine Release, PBMCs IL-2
In short: as §2

GSK 3α = GSK 3α (Homo sapiens (Human), UniProt P49840); test: GSK 3α enzyme inhibition (FRET, Z-LYTE, Method 2); type: biochemical; details: read-out: IC50 Values for Enzyme Inhibition, GSK3α
Sequence of GSK 3α (P49840 whole entry): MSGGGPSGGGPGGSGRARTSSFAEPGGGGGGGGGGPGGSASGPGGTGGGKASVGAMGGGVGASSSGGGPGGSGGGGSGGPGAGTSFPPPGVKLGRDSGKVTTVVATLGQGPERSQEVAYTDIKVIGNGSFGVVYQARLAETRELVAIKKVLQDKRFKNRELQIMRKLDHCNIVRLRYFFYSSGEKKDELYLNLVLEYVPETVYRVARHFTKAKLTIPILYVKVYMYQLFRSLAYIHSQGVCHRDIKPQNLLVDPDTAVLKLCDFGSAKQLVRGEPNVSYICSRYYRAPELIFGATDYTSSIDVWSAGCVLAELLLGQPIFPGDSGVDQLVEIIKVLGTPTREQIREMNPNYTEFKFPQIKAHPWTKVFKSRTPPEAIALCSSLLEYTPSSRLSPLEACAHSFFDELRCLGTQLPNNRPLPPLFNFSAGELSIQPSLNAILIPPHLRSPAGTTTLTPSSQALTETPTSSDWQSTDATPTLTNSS
In short: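 Recombinant human GSK3α was preincubated with compound (stocks 4, 0.4, 0.04 or 0.004 μg/mL) at RT, 2 hr for Method 1 and 105 min for Method 2. FRET peptide (8 μM stock) and ATP (40 μM stock) were added for 1 hr, then protease development for 1 hr. IC50 was taken from concentration–response curves.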

Sequence of p38 MAPKα isoform (MAPK14) (Q16539 whole entry, canonical isoform): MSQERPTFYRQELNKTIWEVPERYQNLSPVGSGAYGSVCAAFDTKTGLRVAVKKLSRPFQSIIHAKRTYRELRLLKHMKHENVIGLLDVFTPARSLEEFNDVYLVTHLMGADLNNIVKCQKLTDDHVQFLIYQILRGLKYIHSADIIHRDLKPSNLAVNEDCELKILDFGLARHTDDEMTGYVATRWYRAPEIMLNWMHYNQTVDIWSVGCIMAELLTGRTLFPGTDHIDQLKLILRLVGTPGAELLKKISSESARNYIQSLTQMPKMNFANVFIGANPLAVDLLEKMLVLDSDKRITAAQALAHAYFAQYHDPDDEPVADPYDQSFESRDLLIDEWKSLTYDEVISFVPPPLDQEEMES

Row | pIC50 [1] | pIC50 (Syk) | pIC50 (c-Src) | pIC50 (GSK 3α) | SMILES | inhibition at 5 µg/mL (PBMCs [2]) [%] | pIC50 (PBMCs [3]) | pIC50 (PBMCs [4]) | pIC50 (PBMCs [5])
1 | 6.91 | < 5.87 | 7.41 | 5.35 | COc1c(CC(N)=O)cc(C(C)(C)C)cc1NC(=O)Nc1ccc(Oc2ccnc(Nc3cc(C#N)cc(OCCN4CCOCC4)c3)c2)c2ccccc12 [Example 49, 2-(5-(tert-Butyl)-3-(3-(4-((2-((3-cyano-5-(2-morpholinoethoxy)phenyl)amino)pyridin-4-yl)oxy)naphthalen-1-yl)ureido)-2-methoxyphenyl)acetamide] | 43.9 | 9.10 | 8.24 | 7.04
2 | 6.80 | < 5.87 | 7.26 | 5.06 | COc1c(NC(=O)Nc2ccc(Oc3ccnc(Nc4cc(C#N)cc(OCCN5CCOCC5)c4)c3)c3ccccc23)cc(C(C)(C)C)cc1[S+](C)[O-] (stereo not shown) [Example 51, 1-(5-(tert-Butyl)-2-methoxy-3-(methylsulfinyl)phenyl)-3-(4-((2-((3-cyano-5-(2-morpholinoethoxy)phenyl)amino)pyridin-4-yl)oxy)naphthalen-1-yl)urea] | 28 | 8.89 | 7.12 | 7.00
3 | < 5.90 | < 5.90 | 6.63 | < 4.90 | COc1c(CNC(C)=O)cc(C(C)(C)C)cc1NC(=O)Nc1ccc(Oc2ccnc(Nc3cc(OCCN4CCOCC4)cc(C(F)(F)F)c3)c2)c2ccccc12 [Example 52] | 46.8 | 8.55 | 8.26 | 7.36
4 | 7.92 | < 5.91 | 7.66 | 5.81 | COCCOCCOCCNC(=O)c1cc(Nc2cc(Oc3ccc(NC(=O)Nc4cc(C(C)(C)C)cc(CC(N)=O)c4OC)c4ccccc34)ccn2)cc(OC)c1 [Example 53, 3-((4-((4-(3-(3-(2-Amino-2-oxoethyl)-5-(tert-butyl)-2-methoxyphenyl)ureido)naphthalen-1-yl)oxy)pyridin-2-yl)amino)-5-methoxy-N-(2-(2-(2-methoxyethoxy)ethoxy)ethyl)benzamide] | 22.3 | 8.96 | 8.22 | 7.28
5 | 7.20 | 6.23 | 7.37 | < 5.30 | COc1cc(Nc2cc(Oc3ccc(NC(=O)Nc4cc(C(C)(C)C)cc(S(C)(=O)=O)c4OC)c4ccccc34)ccn2)cc(C(=O)NCCN2CCOCC2)c1 [Example 54, 3-((4-((4-(3-(5-(tert-Butyl)-2-methoxy-3-(methylsulfonyl)phenyl)ureido)naphthalen-1-yl)oxy)pyridin-2-yl)amino)-5-methoxy-N-(2-morpholinoethyl)benzamide] | 51.9 | 8.82 | 8.43 | 7.42
6 | 7.42 | < 6.16 | 7.43 | 5.61 | COc1cc(Nc2cc(Oc3ccc(NC(=O)Nc4cc(C(C)(C)C)cc([S+](C)[O-])c4OC)c4ccccc34)ccn2)cc(C(N)=O)c1 (stereo not shown) [Example 55, 3-((4-((4-(3-(5-(tert-Butyl)-2-methoxy-3-(methylsulfinyl)phenyl)ureido)naphthalen-1-yl)oxy)pyridin-2-yl)amino)-5-methoxybenzamide] | 51.7 | 9.22 | 8.21 | 7.51
7 | 6.73 | < 5.84 | 7.08 | 5.80 | COc1cc(Nc2cc(Oc3ccc(NC(=O)Nc4cc(C(C)(C)C)cc(CC(N)=O)c4OC)c4ccccc34)ccn2)cc(S(C)(=O)=O)c1 [Example 56, 2-(5-(tert-Butyl)-2-methoxy-3-(3-(4-((2-((3-methoxy-5-(methylsulfonyl)phenyl)amino)pyridin-4-yl)oxy)naphthalen-1-yl)ureido)phenyl)acetamide] | 17.6 | 8.92 | 8.02 | 6.63
8 | 6.68 | < 5.82 | 7.01 | 5.41 | COc1cc(Nc2cc(Oc3ccc(NC(=O)Nc4cc(C(C)(C)C)cc(OCCO)c4OC)c4ccccc34)ccn2)cc(C(N)=O)c1 [Example 57, 3-((4-((4-(3-(5-(tert-Butyl)-3-(2-hydroxyethoxy)-2-methoxyphenyl)ureido)naphthalen-1-yl)oxy)pyridin-2-yl)amino)-5-methoxybenzamide] | 50.6 | 8.96 | 8.11 | 7.03
9 | 6.28 | < 5.87 | 7.00 | 5.15 | COc1cc(Nc2cc(Oc3ccc(NC(=O)Nc4cc(C(C)(C)C)cc(P(C)(C)=O)c4OC)c4ccccc34)ccn2)cc(S(=O)(=O)N(C)C)c1 [Example 58, 3-((4-((4-(3-(5-(tert-Butyl)-3-(dimethylphosphoryl)-2-methoxyphenyl)ureido)naphthalen-1-yl)oxy)pyridin-2-yl)amino)-5-methoxy-N,N-dimethylbenzenesulfonamide] | 2.9 | 8.85 | 8.49 | 6.23
10 | 6.09 | 6.81 | 7.01 | 5.12 | COc1cccc(Nc2cc(Oc3ccc(NC(=O)Nc4cc(C(C)(C)C)cc(C(=O)NCCN5CCOCC5)c4OC)c4ccccc34)ccn2)c1 [Example 63, 5-(tert-Butyl)-2-methoxy-3-(3-(4-((2-((3-methoxyphenyl)amino)pyridin-4-yl)oxy)naphthalen-1-yl)ureido)-N-(2-morpholinoethyl)benzamide] | 45.1 | 8.60 | 8.11 | 7.76
11 | 6.02 | 6.81 | 7.05 | 5.03 | COc1cc(Nc2cc(Oc3ccc(NC(=O)Nc4cc(C(C)(C)C)cc(C(=O)NCCN5CC[S+]([O-])CC5)c4OC)c4ccccc34)ccn2)cc(OC)c1 [Example 64, 5-(tert-Butyl)-3-(3-(4-((2-((3,5-dimethoxyphenyl)amino)pyridin-4-yl)oxy)naphthalen-1-yl)ureido)-2-methoxy-N-(2-(1-oxidothiomorpholino)ethyl)benzamide] | 32.4 | 8.59 | 7.88 | 7.20

Row | SMILES | pIC50 [1] | pIC50 (Syk) | pIC50 (c-Src) | pIC50 (GSK 3α) | inhibition at 5 µg/mL (PBMCs [2]) [%] | pIC50 (PBMCs [3]) | pIC50 (PBMCs [4]) | pIC50 (PBMCs [5])
12 | COCCOCCOCCNC(=O)c1cc(Nc2cc(Oc3ccc(NC(=O)Nc4cc(C(C)(C)C)cc(C(=O)NCCN5CCOCC5)c4OC)c4ccccc34)ccn2)cc(OC)c1 [Example 59, 5-(tert-Butyl)-2-methoxy-3-(3-(4-((2-((3-methoxy-5-((2-(2-(2-methoxyethoxy)ethoxy)ethyl)carbamoyl)phenyl)amino)pyridin-4-yl)oxy)naphthalen-1-yl)ureido)-N-(2-morpholinoethyl)benzamide] | 6.90 | 6.25 | 7.37 | 5.60 | 30.9 | 8.77 | 8.54 | 7.25
13 | COc1cc(Nc2cc(Oc3ccc(NC(=O)Nc4cc(C(C)(C)C)cc(C(=O)NCCN5CCOCC5)c4OC)c4ccccc34)ccn2)cc(C(=O)NCCN2CCOCC2)c1 [Example 60, 5-(tert-Butyl)-2-methoxy-3-(3-(4-((2-((3-methoxy-5-((2-morpholinoethyl)carbamoyl)phenyl)amino)pyridin-4-yl)oxy)naphthalen-1-yl)ureido)-N-(2-morpholinoethyl)benzamide] | 6.89 | 6.69 | 7.46 | 5.77 | 47.5 | 8.62 | 8.15 | 6.99
14 | COc1cc(Nc2cc(Oc3ccc(NC(=O)Nc4cc(C(C)(C)C)cc(C(=O)NCCN5CCOCC5)c4OC)c4ccccc34)ccn2)cc(OC)c1 [Example 62, 5-(tert-Butyl)-3-(3-(4-((2-((3,5-dimethoxyphenyl)amino)pyridin-4-yl)oxy)naphthalen-1-yl)ureido)-2-methoxy-N-(2-morpholinoethyl)benzamide] | 6.32 | 6.84 | 6.98 | < 4.94 | 54.1 | 8.62 | 8.32 | 7.60
